In brackets after ≈: the same amount, converted by molar mass.
Tests used:
Assay type in all cases: functional
[1] = system: Staphylococcus epidermidis; experiment: Ratio of MBC to MIC against Staphylococcus epidermidis ATCC 51625
[2] = system: Staphylococcus aureus; experiment: Antibacterial activity against methicillin-resistant Staphylococcus aureus ATCC 43300 assessed as bacterial growth inhibition measured after 20 hrs by broth dilution method
[3] = system: Staphylococcus epidermidis; experiment: Antibacterial activity against Staphylococcus epidermidis ATCC 51625 assessed as bacterial growth inhibition measured after 20 hrs by broth dilution method
[4] = system: Streptococcus pneumoniae; experiment: Antibacterial activity against penicillin-resistant Streptococcus pneumoniae ATCC 51916 assessed as bacterial growth inhibition measured after 20 hrs by broth dilution method
[5] = system: Enterococcus faecium; experiment: Ratio of MBC to MIC against vancomycin-resistant Enterococcus faecium ATCC 51559
[6] = system: Streptococcus pneumoniae; experiment: Ratio of MBC to MIC against penicillin-intermediate Streptococcus pneumoniae ATCC 49619
[7] = system: Streptococcus pneumoniae; experiment: Ratio of MBC to MIC against penicillin-resistant Streptococcus pneumoniae ATCC 51916
[8] = system: Streptococcus pneumoniae; experiment: Antibacterial activity against penicillin-intermediate Streptococcus pneumoniae ATCC 49619 assessed as bacterial growth inhibition measured after 20 hrs by broth dilution method
[9] = system: Staphylococcus aureus; experiment: Ratio of MBC to MIC against Staphylococcus aureus ATCC 43300
[10] = system: Enterococcus faecium; experiment: Antibacterial activity against vancomycin-resistant Enterococcus faecium ATCC 700221 assessed as bacterial growth inhibition measured after 20 hrs by broth dilution method
[11] = system: Staphylococcus aureus; experiment: Antibacterial activity against methicillin-resistant Staphylococcus aureus ATCC 33591 assessed as bacterial growth inhibition measured after 20 hrs by broth dilution method
[12] = system: Enterococcus faecium; experiment: Ratio of MBC to MIC against vancomycin-resistant Enterococcus faecium ATCC 700221
[13] = system: Enterococcus faecium; experiment: Antibacterial activity against vancomycin-resistant Enterococcus faecium ATCC 51559 assessed as bacterial growth inhibition measured after 20 hrs by broth dilution method
[14] = system: Staphylococcus aureus; experiment: Ratio of MBC to MIC against methicillin-resistant Staphylococcus aureus ATCC 33591

Row | Structure (SMILES) | Ratio [1] | MIC [2] | MIC [3] | MIC [4] | Ratio [5] | Ratio [6] | Ratio [7] | MIC [8] | Ratio [9] | MIC [10] | MIC [11] | Ratio [12] | MIC [13] | Ratio [14]
1 | C=C[C@]1(C)C[C@@H](OC(=O)CSCCOc2cc(=O)oc3cc(C)ccc23)[C@]2(C)[C@H](C)CC[C@]3(CCC(=O)[C@H]32)[C@@H](C)[C@@H]1O | 4 | 0.25 µg/mL (≈ 0.419 µM) | 0.063 µg/mL (≈ 0.106 µM) | 0.25 µg/mL (≈ 0.419 µM) | 1 | 2 | 4 | 0.125 µg/mL (≈ 0.209 µM) | >4 | 0.125 µg/mL (≈ 0.209 µM) | 0.125 µg/mL (≈ 0.209 µM) | 2 | 0.25 µg/mL (≈ 0.419 µM) | –
2 | C=C[C@]1(C)C[C@@H](OC(=O)CSCCOc2cc(=O)oc3ccc(F)cc23)[C@]2(C)[C@H](C)CC[C@]3(CCC(=O)[C@H]32)[C@@H](C)[C@@H]1O | >4 | 0.5 µg/mL (≈ 0.832 µM) | 0.125 µg/mL (≈ 0.208 µM) | 1 µg/mL (≈ 1.66 µM) | 4 | >4 | – | 1 µg/mL (≈ 1.66 µM) | >4 | 1 µg/mL (≈ 1.66 µM) | 0.5 µg/mL (≈ 0.832 µM) | >4 | 8 µg/mL (≈ 13.3 µM) | –
3 | C=C[C@]1(C)C[C@@H](OC(=O)CSc2cc(=O)oc3ccc(OC)cc23)[C@]2(C)[C@H](C)CC[C@]3(CCC(=O)[C@H]32)[C@@H](C)[C@@H]1O | >4 | 0.125 µg/mL (≈ 0.22 µM) | 0.063 µg/mL (≈ 0.111 µM) | 0.125 µg/mL (≈ 0.22 µM) | 2 | >4 | – | 0.125 µg/mL (≈ 0.22 µM) | 2 | 0.063 µg/mL (≈ 0.111 µM) | 0.125 µg/mL (≈ 0.22 µM) | >4 | 0.125 µg/mL (≈ 0.22 µM) | 4
4 | C=C[C@]1(C)C[C@@H](OC(=O)CSc2cc(=O)oc3ccc(C)cc23)[C@]2(C)[C@H](C)CC[C@]3(CCC(=O)[C@H]32)[C@@H](C)[C@@H]1O | >4 | 0.125 µg/mL (≈ 0.226 µM) | 0.063 µg/mL (≈ 0.114 µM) | 0.125 µg/mL (≈ 0.226 µM) | 2 | 4 | >4 | 0.25 µg/mL (≈ 0.452 µM) | >4 | 0.25 µg/mL (≈ 0.452 µM) | 0.125 µg/mL (≈ 0.226 µM) | 4 | 2 µg/mL (≈ 3.62 µM) | –
5 | C=C[C@]1(C)C[C@@H](OC(=O)CSCCOc2cc(=O)oc3cc(Br)ccc23)[C@]2(C)[C@H](C)CC[C@]3(CCC(=O)[C@H]32)[C@@H](C)[C@@H]1O | >4 | 0.25 µg/mL (≈ 0.378 µM) | 0.125 µg/mL (≈ 0.189 µM) | 0.25 µg/mL (≈ 0.378 µM) | 2 | >4 | – | 0.125 µg/mL (≈ 0.189 µM) | >4 | 0.125 µg/mL (≈ 0.189 µM) | 0.125 µg/mL (≈ 0.189 µM) | 2 | 0.5 µg/mL (≈ 0.756 µM) | –
6 | C=C[C@]1(C)C[C@@H](OC(=O)CSc2cc(=O)oc3ccc(Cl)cc23)[C@]2(C)[C@H](C)CC[C@]3(CCC(=O)[C@H]32)[C@@H](C)[C@@H]1O | >4 | 0.25 µg/mL (≈ 0.436 µM) | 0.063 µg/mL (≈ 0.11 µM) | 0.125 µg/mL (≈ 0.218 µM) | 2 | 2 | 4 | 0.125 µg/mL (≈ 0.218 µM) | >4 | 0.125 µg/mL (≈ 0.218 µM) | 0.125 µg/mL (≈ 0.218 µM) | >4 | 0.5 µg/mL (≈ 0.872 µM) | –
7 | C=C[C@]1(C)C[C@@H](OC(=O)CSCCOc2cc(=O)oc3cc(F)ccc23)[C@]2(C)[C@H](C)CC[C@]3(CCC(=O)[C@H]32)[C@@H](C)[C@@H]1O | >4 | 0.125 µg/mL (≈ 0.208 µM) | 0.031 µg/mL (≈ 0.0516 µM) | 0.125 µg/mL (≈ 0.208 µM) | 2 | >4 | – | 0.25 µg/mL (≈ 0.416 µM) | >4 | 0.125 µg/mL (≈ 0.208 µM) | 0.125 µg/mL (≈ 0.208 µM) | >4 | 0.25 µg/mL (≈ 0.416 µM) | –
8 | C=C[C@]1(C)C[C@@H](OC(=O)CSCCOc2cc(=O)oc3ccc([N+](=O)[O-])cc23)[C@]2(C)[C@H](C)CC[C@]3(CCC(=O)[C@H]32)[C@@H](C)[C@@H]1O | >4 | 0.125 µg/mL (≈ 0.199 µM) | 0.031 µg/mL (≈ 0.0494 µM) | 0.063 µg/mL (≈ 0.1 µM) | 2 | 2 | >4 | 0.063 µg/mL (≈ 0.1 µM) | >4 | 0.063 µg/mL (≈ 0.1 µM) | 0.125 µg/mL (≈ 0.199 µM) | 2 | 0.25 µg/mL (≈ 0.398 µM) | –
9 | C=C[C@]1(C)C[C@@H](OC(=O)CSCCOc2cc(=O)oc3ccc(Br)cc23)[C@]2(C)[C@H](C)CC[C@]3(CCC(=O)[C@H]32)[C@@H](C)[C@@H]1O | >4 | 1 µg/mL (≈ 1.51 µM) | 0.25 µg/mL (≈ 0.378 µM) | 2 µg/mL (≈ 3.02 µM) | 2 | >4 | 4 | 2 µg/mL (≈ 3.02 µM) | 2 | 1 µg/mL (≈ 1.51 µM) | 0.25 µg/mL (≈ 0.378 µM) | 2 | 16 µg/mL (≈ 24.2 µM) | >4
10 | C=C[C@]1(C)C[C@@H](OC(=O)CSCCOc2cc(=O)oc3cc(Cl)ccc23)[C@]2(C)[C@H](C)CC[C@]3(CCC(=O)[C@H]32)[C@@H](C)[C@@H]1O | >4 | 1 µg/mL (≈ 1.62 µM) | 0.125 µg/mL (≈ 0.203 µM) | 0.125 µg/mL (≈ 0.203 µM) | >4 | >4 | 2 | 0.063 µg/mL (≈ 0.102 µM) | >4 | 0.125 µg/mL (≈ 0.203 µM) | 0.25 µg/mL (≈ 0.405 µM) | >4 | 0.5 µg/mL (≈ 0.81 µM) | –
11 | C=C[C@]1(C)C[C@@H](OC(=O)CSCCOc2cc(=O)oc3ccc(C)cc23)[C@]2(C)[C@H](C)CC[C@]3(CCC(=O)[C@H]32)[C@@H](C)[C@@H]1O | >4 | 0.125 µg/mL (≈ 0.209 µM) | 0.125 µg/mL (≈ 0.209 µM) | 0.25 µg/mL (≈ 0.419 µM) | 1 | 2 | >4 | 0.063 µg/mL (≈ 0.106 µM) | >4 | 0.125 µg/mL (≈ 0.209 µM) | 0.25 µg/mL (≈ 0.419 µM) | >4 | 0.25 µg/mL (≈ 0.419 µM) | –
12 | C=C[C@]1(C)C[C@@H](OC(=O)CSc2cc(=O)oc3ccc(Br)cc23)[C@]2(C)[C@H](C)CC[C@]3(CCC(=O)[C@H]32)[C@@H](C)[C@@H]1O | >4 | 0.25 µg/mL (≈ 0.405 µM) | 0.063 µg/mL (≈ 0.102 µM) | 0.063 µg/mL (≈ 0.102 µM) | >4 | 2 | >4 | 0.25 µg/mL (≈ 0.405 µM) | >4 | 0.25 µg/mL (≈ 0.405 µM) | 0.125 µg/mL (≈ 0.202 µM) | >4 | 0.25 µg/mL (≈ 0.405 µM) | –
13 | C=C[C@]1(C)C[C@@H](OC(=O)CSCCOc2cc(=O)oc3ccc(OC)cc23)[C@]2(C)[C@H](C)CC[C@]3(CCC(=O)[C@H]32)[C@@H](C)[C@@H]1O | 4 | 0.25 µg/mL (≈ 0.408 µM) | 0.031 µg/mL (≈ 0.0506 µM) | 0.125 µg/mL (≈ 0.204 µM) | 1 | >4 | – | 0.125 µg/mL (≈ 0.204 µM) | >4 | 0.063 µg/mL (≈ 0.103 µM) | 0.125 µg/mL (≈ 0.204 µM) | >4 | 0.25 µg/mL (≈ 0.408 µM) | –
14 | C=C[C@]1(C)C[C@@H](OC(=O)CSCCOc2cc(=O)oc3ccc(Cl)cc23)[C@]2(C)[C@H](C)CC[C@]3(CCC(=O)[C@H]32)[C@@H](C)[C@@H]1O | >4 | 0.5 µg/mL (≈ 0.81 µM) | 0.125 µg/mL (≈ 0.203 µM) | 2 µg/mL (≈ 3.24 µM) | >4 | >4 | – | 4 µg/mL (≈ 6.48 µM) | >4 | 1 µg/mL (≈ 1.62 µM) | 0.5 µg/mL (≈ 0.81 µM) | >4 | 1 µg/mL (≈ 1.62 µM) | –
